Experiments:
Aorta [1] = experiment: Vasorelaxant activity against noradrenaline-induced contraction in Wistar rat thoracic aorta in presence of calcium; format: functional, tissue-based
Aorta [2] = experiment: Vasorelaxant activity against KCl-induced contraction in Wistar rat thoracic aorta in presence of calcium; format: functional, tissue-based
[3] = target: Voltage-gated L-type calcium channel (Rattus norvegicus, UniProt P22002+Q02485+P27732); experiment: Displacement of [3H]diltiazem from benzothiazepine binding site of L-type calcium channel in Wistar rat cerebral cortex membrane
[4] = target: T1, Adrenergic receptor alpha-1 (Rattus norvegicus, UniProt P15823+P23944+P43140); experiment: Displacement of [3H]prazosin from alpha1 adrenergic receptor in Wistar rat cerebral cortex membrane; format: tissue-based
T1 sequence (P15823 whole entry): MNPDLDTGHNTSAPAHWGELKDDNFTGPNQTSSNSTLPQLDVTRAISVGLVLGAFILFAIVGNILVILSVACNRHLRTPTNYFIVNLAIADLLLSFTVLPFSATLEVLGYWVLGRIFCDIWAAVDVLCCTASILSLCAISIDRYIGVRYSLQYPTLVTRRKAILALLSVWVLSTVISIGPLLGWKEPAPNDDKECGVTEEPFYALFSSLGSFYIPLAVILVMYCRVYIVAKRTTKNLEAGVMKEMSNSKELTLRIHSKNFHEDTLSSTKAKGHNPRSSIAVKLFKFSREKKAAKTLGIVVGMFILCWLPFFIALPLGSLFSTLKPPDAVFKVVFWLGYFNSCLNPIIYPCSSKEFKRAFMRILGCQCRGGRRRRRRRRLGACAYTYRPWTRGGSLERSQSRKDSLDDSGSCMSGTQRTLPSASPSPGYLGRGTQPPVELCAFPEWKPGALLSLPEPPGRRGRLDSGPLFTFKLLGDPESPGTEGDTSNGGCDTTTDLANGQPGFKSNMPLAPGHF
T1 sequence (P23944 whole entry): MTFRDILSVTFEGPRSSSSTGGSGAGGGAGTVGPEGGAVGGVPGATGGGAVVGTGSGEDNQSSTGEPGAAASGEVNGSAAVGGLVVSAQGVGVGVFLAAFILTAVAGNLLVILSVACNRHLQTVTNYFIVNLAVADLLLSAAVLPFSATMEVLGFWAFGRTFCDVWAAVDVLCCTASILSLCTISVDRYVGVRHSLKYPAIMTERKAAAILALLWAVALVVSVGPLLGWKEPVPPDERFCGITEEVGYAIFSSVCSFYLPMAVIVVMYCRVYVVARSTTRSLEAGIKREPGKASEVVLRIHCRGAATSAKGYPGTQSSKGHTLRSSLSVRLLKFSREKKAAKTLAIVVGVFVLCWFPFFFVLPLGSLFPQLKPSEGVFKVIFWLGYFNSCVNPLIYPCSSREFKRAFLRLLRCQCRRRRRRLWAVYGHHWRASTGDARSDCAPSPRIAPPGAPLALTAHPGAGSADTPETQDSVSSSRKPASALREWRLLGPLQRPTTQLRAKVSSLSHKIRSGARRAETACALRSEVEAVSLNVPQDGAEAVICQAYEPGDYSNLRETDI
T1 sequence (P43140 whole entry): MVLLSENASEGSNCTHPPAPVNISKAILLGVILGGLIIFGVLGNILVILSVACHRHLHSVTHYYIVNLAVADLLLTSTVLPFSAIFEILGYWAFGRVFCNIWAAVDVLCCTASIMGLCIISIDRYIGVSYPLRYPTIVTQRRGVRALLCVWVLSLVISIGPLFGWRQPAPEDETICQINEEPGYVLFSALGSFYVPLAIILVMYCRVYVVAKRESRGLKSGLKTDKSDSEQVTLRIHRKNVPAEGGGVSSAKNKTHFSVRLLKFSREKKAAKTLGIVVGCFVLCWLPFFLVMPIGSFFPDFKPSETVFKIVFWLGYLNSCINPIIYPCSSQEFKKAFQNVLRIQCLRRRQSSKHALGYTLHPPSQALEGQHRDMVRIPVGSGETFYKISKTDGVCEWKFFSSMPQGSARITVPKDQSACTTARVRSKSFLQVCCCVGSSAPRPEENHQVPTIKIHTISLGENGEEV

Aorta [5] = experiment: Vasorelaxant activity against KCl-induced contraction in Wistar rat thoracic aorta at 100 uM in presence of calcium; format: functional; set-up: scale not given: the % may be the effect or the level left

Compound | IC50 (Aorta [1]) [µM] | IC50 (Aorta [2]) [µM] | pKi [3] | pKi [4] | Activity ([3]; rat) [%] | Activity (Aorta [5]) [%]
COc1ccc(CC2c3cc(O)c(OC)cc3CCN2C)cc1 (racemic) | 25.1 | 72.4 | 4.9 | 5.29 | – | –
COc1cc2c(cc1OC)C(Cc1ccc(O)cc1)N(C)CC2 (racemic) | 209 | 115 | 5.02 | 5.14 | – | –
COc1ccc(CC2NCCc3cc(OC)c(O)cc32)cc1 (racemic) | – | – | 4.49 | 4.92 | – | –
CCN1CCc2cc(OC)c(OC)cc2C1Cc1ccc(O)cc1 (racemic) | – | – | 4.51 | 5.07 | – | –
COc1ccc(CC2NCCc3cc(OC)c(OCc4ccccc4)cc32)cc1 (racemic) | – | – | – | 5.34 | – | –
COc1cc2c(cc1O)C(Cc1ccc(O)cc1)N(C)CC2 (racemic) [METHYL COCLAURINE] | 24.5 | 67.6 | 4.64 | 5.63 | – | –
COc1ccc(CC2c3cc(OCc4ccccc4)c(OC)cc3CCN2C)cc1 (racemic) | 4.27 | 11.5 | 5.82 | 5.73 | – | –
COc1ccc(CC2c3cc(OC)c(OC)cc3CCN2C)cc1 (racemic) | 66.1 | 14.8 | 5.38 | 5.1 | – | –
COc1cc2c(cc1OCc1ccccc1)C(Cc1ccc(OCc3ccccc3)cc1)NCC2 (racemic) | – | – | 4.61 | 5.02 | – | –
COc1ccc2cc1Oc1ccc(cc1)C[C@H]1c3cc(c(OC)cc3CCN1C)Oc1c(OC)c(OC)cc3c1[C@H](C2)N(C)CC3 [FANCHININ] | 29.5 | 13.5 | 6.13 | 6.16 | – | –
COc1cc2c(cc1OC)C(Cc1ccc(O)cc1)NCC2 (racemic) | – | – | – | 5.23 | – | –
COc1cc2c(cc1O)C(Cc1ccc(OCc3ccccc3)cc1)NCC2 (racemic) | 16.2 | 13.8 | 5.57 | 5.69 | – | –
COc1cc2c(cc1O)C(Cc1ccc(O)cc1)NCC2 (racemic) [COCLAURINE] | 17.4 | – | – | 5.97 | 30 | 17.2
COc1cc2c(cc1OCc1ccccc1)C(Cc1ccc(O)cc1)N(C)CC2 (racemic) | 8.71 | 5.75 | 5.7 | 5.49 | – | –
COc1cc2c(cc1OCc1ccccc1)C(Cc1ccc(O)cc1)NCC2 (racemic) | 13.2 | 7.59 | 5.6 | 5.49 | – | –
CCCN1CCc2cc(OC)c(OCc3ccccc3)cc2C1Cc1ccc(OCc2ccccc2)cc1 (racemic) | – | – | 5.75 | 5.05 | – | –
COc1cc2c(cc1OCc1ccccc1)C(Cc1ccc(OCc3ccccc3)cc1)N(C)CC2 (racemic) | – | – | 5.74 | 5.12 | – | –
CCN1CCc2cc(OC)c(O)cc2C1Cc1ccc(O)cc1 (racemic) | – | – | 4.86 | 5.29 | – | –
